According to patent publication US20240174649A1, “CULLIN-RING E3 UBIQUITIN LIGASE 4 INHIBITOR COMPOUNDS AND METHODS OF THEIR USE” (ICAHN SCHOOL OF MEDICINE AT MOUNT SINAI, priority 2021, published 2024):

Key:
ROC1-CUL4A CTD [1] = biological target: ROC1-CUL4A CTD (Homo sapiens (Human), UniProt Q13619); assay: Ligand binding by Micro-Scale Thermophoresis (MST); details: MST
Method: (§1) E3 ligase complex (˜2 nmol) was labeled with fluorescent dye using Monolith NT Protein Labeling Kit Red-NHS (Nanotemper) in the presence of 20 mM MES pH 6.0 and 150 mM NaCl. Excess dye was removed using the included gravity flow column and eluted in storage buffer containing 20 mM Tris-HCl, pH 7.4, 150 mM NaCl, and 10% glycerol. The fluorescent E3 complex (˜0.01-0.06 μM) was mixed with increasing amount of compound in a buffer (20 μl) that contains phosphate-buffered saline, 0.1% TWEEN-20 and 2% prionex. Following incubation at room temperature for 30 min, the reaction mixture loaded into premium coated capillaries and analyzed in the Monolith NT.115 machine (Nanotemper). Thermophoresis was recorded for each sample and binding curve was generated and Kd was calculated using the included software. For reactions where significant ligand specific fluorescence quenching occurred (verified by manufacturer's SDS Denaturation-test protocol), the initial fluorescence quenching data was used directly to calculate the binding curve and Kd.

ROC1-CUL4A CTD [2] = assay: Ligand binding by Micro-Scale Thermophoresis (MST); set-up: species or system human; details: ratio of Kd
Method: as §1

Nedd8-ROC1-CUL1 = Nedd8-ROC1-CUL1 (Homo sapiens (Human), UniProt Q13616); assay: Ub chain assembly measured by Coomassie stain; format: biochemical
Chain of Nedd8-ROC1-CUL1 (Q13616 whole entry): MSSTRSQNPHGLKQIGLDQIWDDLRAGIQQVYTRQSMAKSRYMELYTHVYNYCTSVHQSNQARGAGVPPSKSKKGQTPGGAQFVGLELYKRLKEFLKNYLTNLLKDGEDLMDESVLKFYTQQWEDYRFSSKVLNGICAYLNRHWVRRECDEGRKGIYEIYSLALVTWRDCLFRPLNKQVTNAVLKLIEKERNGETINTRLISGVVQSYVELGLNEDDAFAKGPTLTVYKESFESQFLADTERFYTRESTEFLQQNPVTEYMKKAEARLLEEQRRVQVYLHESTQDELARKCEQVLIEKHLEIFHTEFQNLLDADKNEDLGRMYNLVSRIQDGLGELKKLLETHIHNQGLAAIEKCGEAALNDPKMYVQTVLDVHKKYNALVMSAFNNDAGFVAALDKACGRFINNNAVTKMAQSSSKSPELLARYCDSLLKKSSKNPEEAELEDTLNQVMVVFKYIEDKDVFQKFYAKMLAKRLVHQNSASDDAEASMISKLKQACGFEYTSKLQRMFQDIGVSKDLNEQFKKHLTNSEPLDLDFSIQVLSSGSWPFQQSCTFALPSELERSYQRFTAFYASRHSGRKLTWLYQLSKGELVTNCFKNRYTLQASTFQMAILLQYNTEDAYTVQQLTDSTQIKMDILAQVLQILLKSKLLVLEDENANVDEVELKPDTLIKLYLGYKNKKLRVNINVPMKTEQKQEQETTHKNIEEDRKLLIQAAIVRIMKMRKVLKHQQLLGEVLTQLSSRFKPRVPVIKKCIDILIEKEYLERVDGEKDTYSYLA
Chain of Nedd8-ROC1-CUL1 (P62877 whole entry partner): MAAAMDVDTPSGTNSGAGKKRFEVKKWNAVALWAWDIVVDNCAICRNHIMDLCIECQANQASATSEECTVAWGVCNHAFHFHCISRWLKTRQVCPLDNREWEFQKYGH
Chain of Nedd8-ROC1-CUL1 (Q15843 1-76 partner): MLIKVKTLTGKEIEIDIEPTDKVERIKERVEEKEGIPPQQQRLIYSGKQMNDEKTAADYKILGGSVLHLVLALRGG
Method: (§2) Reaction mixture contained 2 mM ATP, 10 mM MgCl2, 0.01 μg/μl of GST-E1 (Ub), 0.01 μg/μl of Cdc34, 0.1 μg/μl of Nedd8-ROC1-CUL1 or Nedd8-ROC1-CUL4A, and 1 μg/μl of Ub. Where indicated, DMSO and compound were added. The reaction was incubated at 37° C. for 60 min. Following separation of reaction products by SDS-PAGE, proteins were visualized by Coomassie stain.

Nedd8-ROC1-CUL4A = Nedd8-ROC1-CUL4A (Homo sapiens (Human), UniProt Q13619); assay: Ub chain assembly measured by Coomassie stain; format: biochemical; details: 10 μM
Chain of Nedd8-ROC1-CUL4A (Q13619 39-759 limits assumed): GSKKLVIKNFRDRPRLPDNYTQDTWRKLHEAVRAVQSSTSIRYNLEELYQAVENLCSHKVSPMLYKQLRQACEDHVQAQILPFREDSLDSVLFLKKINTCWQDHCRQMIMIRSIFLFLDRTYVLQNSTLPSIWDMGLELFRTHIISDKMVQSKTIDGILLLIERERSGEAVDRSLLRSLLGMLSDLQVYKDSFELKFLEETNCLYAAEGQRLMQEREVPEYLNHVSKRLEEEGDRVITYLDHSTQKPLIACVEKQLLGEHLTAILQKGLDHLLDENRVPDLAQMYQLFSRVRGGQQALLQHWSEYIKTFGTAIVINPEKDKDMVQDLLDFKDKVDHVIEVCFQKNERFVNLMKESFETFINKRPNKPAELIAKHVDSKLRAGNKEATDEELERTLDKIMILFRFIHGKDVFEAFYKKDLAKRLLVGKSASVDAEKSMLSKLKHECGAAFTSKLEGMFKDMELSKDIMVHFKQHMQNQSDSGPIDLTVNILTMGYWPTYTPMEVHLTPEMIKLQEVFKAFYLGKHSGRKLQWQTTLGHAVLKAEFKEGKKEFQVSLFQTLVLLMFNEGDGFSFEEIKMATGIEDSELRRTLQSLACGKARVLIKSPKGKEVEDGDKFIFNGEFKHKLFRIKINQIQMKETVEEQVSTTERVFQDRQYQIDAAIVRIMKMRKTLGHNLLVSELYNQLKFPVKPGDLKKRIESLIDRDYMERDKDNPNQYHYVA
Chain of Nedd8-ROC1-CUL4A (P62877 15-108 partner limits assumed): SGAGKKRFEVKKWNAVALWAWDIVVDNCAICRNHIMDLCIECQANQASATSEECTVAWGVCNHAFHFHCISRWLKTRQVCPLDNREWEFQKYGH
Chain of Nedd8-ROC1-CUL4A (Q15843 1-76 partner limits assumed): as the sequence (Q15843 1-76 partner) above
Method: as §2

Plasma stability = format: in vitro ADME; details: Human
Method: (§3) ADME studies on compounds #33-11 and KH-4-43 for “absorption, distribution, metabolism, and excretion” were carried out at CRO, BioDuro. Kinetic solubility, plasma and microsome stability in rat, mouse and human, as well as Caco-2 Permeability were examined.

[3] = In vitro stability in mouse, rat and human microsomes; format: in vitro ADME
Method: as §3

Chain of ROC1-CUL4A CTD (Homo sapiens (Human), UniProt Q13619) (Q13619 400-759): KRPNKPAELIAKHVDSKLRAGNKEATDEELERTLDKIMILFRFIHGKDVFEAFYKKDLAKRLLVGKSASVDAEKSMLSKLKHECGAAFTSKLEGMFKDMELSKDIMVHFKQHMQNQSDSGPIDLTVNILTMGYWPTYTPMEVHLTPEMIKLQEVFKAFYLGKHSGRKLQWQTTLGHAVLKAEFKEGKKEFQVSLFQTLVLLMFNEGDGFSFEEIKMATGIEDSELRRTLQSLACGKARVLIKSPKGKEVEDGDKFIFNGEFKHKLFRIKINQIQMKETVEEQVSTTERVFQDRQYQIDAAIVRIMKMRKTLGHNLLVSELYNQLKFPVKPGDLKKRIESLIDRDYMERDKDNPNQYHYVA

Row | SMILES | Kd (ROC1-CUL4A CTD [1]) [µM] | binding to ROC1-CUL4A CTD more effectively than ROC1-CUL1 CTD (ROC1-CUL4A CTD [2]) [fold] | effect on Ub chain assembly (Nedd8-ROC1-CUL1; 1 mM) | effect on Ub chain assembly (Nedd8-ROC1-CUL1; 10 or 100 μM) | effect on Ub chain assembly (Nedd8-ROC1-CUL4A) | Plasma Stability: t1/2 (Plasma stability) [h] | half-life [3] [h]
1 | O=c1c(-c2cnn(-c3ccccc3)c2)c(C(F)(F)F)oc2c(O)c(O)ccc12 [#33-11, 7,8-dihydroxy-3-(1-phenyl-1H-pyrazol-4-yl)-2-(trifluoromethyl)-4H-chromen-4-one] | 0.223 | ~20 | blocked the utilization of Ub | little effect | block the utilization of free Ub | >8.33 | –
2 | O=c1c(-c2cnn(-c3ccc(Cl)cc3)c2)c(C(F)(F)F)oc2c(O)c(O)ccc12 [KH-4-43, 3-(1-(4-chlorophenyl)-1H-pyrazol-4-yl)-7,8-dihydroxy-2-(trifluoromethyl)-4H-chromen-4-one] | – | – | – | – | – | – | > 5
